Experimental data taken from ChEMBL document CHEMBL1201862, “PubChem BioAssay data set” (2004).
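Grown in 96-well plates, cells were treated for 48 hours with each compound at five concentrations. Insufficient inhibition: endpoint recorded as highest concentration tested. Abbreviation: GI50, concentration required for 50% inhibition of growth.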 Activity calls are given as the source filed them. Cut-off read from the data, not from the text of the source: active = GI50 up to about 1.1 µM and inactive = higher.

Assays:
Experiment in all cases: inhibition of tumour cell growth, NCI panel, 48 h
[1] = tested on: HCT-15
[2] = tested on: SF-539
[3] = tested on: SW-620
[4] = tested on: Malme-3M
[5] = tested on: OVCAR-3
[6] = tested on: NCI/ADR-RES
[7] = tested on: HCT-116
[8] = tested on: SNB-19
[9] = tested on: DU-145
[10] = tested on: M14
[11] = tested on: CCRF-CEM
[12] = tested on: MDA-MB-435
[13] = tested on: HCC 2998
[14] = tested on: RXF 393
[15] = tested on: UACC-62
[16] = tested on: UO-31
[17] = tested on: K562
[18] = tested on: SNB-75
[19] = tested on: HT-29
[20] = tested on: OVCAR-4
[21] = tested on: TK-10
[22] = tested on: SF-268
[23] = tested on: NCI-H522
[24] = tested on: IGROV-1
[25] = tested on: EKVX
[26] = tested on: A549
[27] = tested on: U-251
[28] = tested on: LOX IMVI
[29] = tested on: OVCAR-5
[30] = tested on: Hs-578T
[31] = tested on: HL-60
[32] = tested on: PC-3
[33] = tested on: MDA-N
[34] = tested on: SK-MEL-5
[35] = tested on: SF-295
[36] = tested on: SK-MEL-28
[37] = tested on: NCI-H460
[38] = tested on: SN12C
[39] = tested on: MCF7
[40] = tested on: MOLT-4
[41] = tested on: UACC-257
[42] = tested on: KM12
[43] = tested on: 786-0
[44] = tested on: OVCAR-8
[45] = tested on: RPMI-8226
[46] = tested on: SK-OV-3
[47] = tested on: ACHN
[48] = tested on: SK-MEL-2
[49] = tested on: NCI-H226
[50] = tested on: BT-549
[51] = tested on: NCI-H23
[52] = tested on: HOP-62
[53] = tested on: COLO 205
[54] = tested on: SR
[55] = tested on: CAKI-1
[56] = tested on: A498
[57] = tested on: MDA-MB-231

Structure (SMILES): CC(C)CCc1c(Cl)nc(Cl)nc1Cl
- GI50 [1]: 3.47 µM
- GI50 [2]: 24.8 µM (inactive)
- GI50 [3]: 1.4 µM (inactive)
- GI50 [4]: 6.12 µM (inactive)
- GI50 [5]: 11.9 µM (inactive)
- GI50 [6]: 28.2 µM (inactive)
- GI50 [7]: 2.48 µM (inactive)
- GI50 [8]: 22 µM (inactive)
- GI50 [9]: 17.3 µM (inactive)
- GI50 [10]: 3.61 µM (inactive)
- GI50 [11]: 0.33 µM (active)
- GI50 [12]: 6.18 µM (inactive)
- GI50 [13]: 16.5 µM (inactive)
- GI50 [14]: 3.89 µM (inactive)
- GI50 [15]: 12 µM (inactive)
- GI50 [16]: 20.1 µM (inactive)
- GI50 [17]: 3.41 µM (inactive)
- GI50 [18]: 10 µM (inactive)
- GI50 [19]: 12.8 µM (inactive)
- GI50 [20]: 19.7 µM (inactive)
- GI50 [21]: 21.1 µM (inactive)
- GI50 [22]: 17.6 µM (inactive)
- GI50 [23]: 2.71 µM (inactive)
- GI50 [24]: 18 µM (inactive)
- GI50 [25]: 26.2 µM (inactive)
- GI50 [26]: 21.7 µM (inactive)
- GI50 [27]: 11.8 µM (inactive)
- GI50 [28]: 0.726 µM (active)
- GI50 [29]: 28.1 µM (inactive)
- GI50 [30]: 17.9 µM (inactive)
- GI50 [31]: > 100 µM (inactive)
- GI50 [32]: 13.6 µM (inactive)
- GI50 [33]: 3.98 µM (inactive)
- GI50 [34]: 4.07 µM (inactive)
- GI50 [35]: 18.1 µM (inactive)
- GI50 [36]: 9.04 µM (inactive)
- GI50 [37]: 15.5 µM (inactive)
- GI50 [38]: 10.7 µM (inactive)
- GI50 [39]: 13.8 µM (inactive)
- GI50 [40]: 0.783 µM (active)
- GI50 [41]: 16.7 µM (inactive)
- GI50 [42]: > 10 µM (inactive)
- GI50 [43]: 20.3 µM (inactive)
- GI50 [44]: > 10 µM (inactive)
- GI50 [45]: 30.7 µM (inactive)
- GI50 [46]: 17 µM (inactive)
- GI50 [47]: 21.2 µM (inactive)
- GI50 [48]: 16 µM (inactive)
- GI50 [49]: 4.44 µM (inactive)
- GI50 [50]: 4.1 µM (inactive)
- GI50 [51]: 8.97 µM (inactive)
- GI50 [52]: 16.4 µM (inactive)

Structure (SMILES): O=c1[nH]c2ccc(CC(=S)N3CCOCC3)cc2s1
- GI50 [1]: > 100 µM
- GI50 [2]: > 100 µM (inactive)
- GI50 [3]: > 100 µM (inactive)
- GI50 [4]: > 100 µM (inactive)
- GI50 [5]: > 100 µM (inactive)
- GI50 [6]: > 100 µM (inactive)
- GI50 [53]: > 100 µM (inactive)
- GI50 [54]: > 100 µM (inactive)
- GI50 [55]: > 100 µM (inactive)
- GI50 [7]: > 100 µM (inactive)
- GI50 [56]: > 100 µM (inactive)
- GI50 [8]: > 100 µM (inactive)
- GI50 [9]: > 100 µM (inactive)
- GI50 [10]: > 100 µM (inactive)
- GI50 [11]: > 100 µM (inactive)
- GI50 [12]: > 100 µM (inactive)
- GI50 [14]: > 100 µM (inactive)
- GI50 [15]: > 100 µM (inactive)
- GI50 [17]: > 100 µM (inactive)
- GI50 [19]: > 100 µM (inactive)
- GI50 [21]: > 100 µM (inactive)
- GI50 [22]: > 100 µM (inactive)
- GI50 [24]: > 100 µM (inactive)
- GI50 [25]: > 100 µM (inactive)
- GI50 [27]: > 100 µM (inactive)
- GI50 [28]: > 100 µM (inactive)
- GI50 [29]: > 100 µM (inactive)
- GI50 [30]: > 100 µM (inactive)
- GI50 [31]: 53.6 µM (inactive)
- GI50 [32]: > 100 µM (inactive)
- GI50 [33]: > 100 µM (inactive)
- GI50 [57]: > 100 µM (inactive)
- GI50 [34]: > 100 µM (inactive)
- GI50 [35]: > 100 µM (inactive)
- GI50 [36]: > 100 µM (inactive)
- GI50 [37]: > 100 µM (inactive)
- GI50 [38]: > 100 µM (inactive)
- GI50 [39]: > 100 µM (inactive)
- GI50 [40]: > 100 µM (inactive)
- GI50 [41]: > 100 µM (inactive)
- GI50 [42]: > 100 µM (inactive)
- GI50 [43]: > 100 µM (inactive)
- GI50 [44]: > 100 µM (inactive)
- GI50 [45]: > 100 µM (inactive)
- GI50 [46]: > 100 µM (inactive)
- GI50 [47]: > 100 µM (inactive)
- GI50 [48]: > 100 µM (inactive)
- GI50 [49]: > 100 µM (inactive)
- GI50 [50]: > 100 µM (inactive)
- GI50 [51]: > 100 µM (inactive)
- GI50 [52]: > 100 µM (inactive)
